Assay results as given in patent US12031170B2, “System for improved production titers in fermentations” (DANMARKS TEKNISKE UNIVERSITET, priority 2015, dated 2024).

How the values were obtained:
Assay type in all cases: cell-based
[1] = tested on: E. coli XL-1 with pBAD-TA5; assay: L-arabinose-addiction yefM-yoeB TA system, cell growth (OD600)
Experimental: The yefM-yoeB TA pair was cloned into a plasmid (pBAD-TA5: araC, pBAD-yefM, pLac-yoeB, ampR) (Table 1) employing standard PCR cloning protocols (known in the art) and the plasmid was transformed into the host stain E. coli XL-1 with the genotype: recA1endA1 gyrA96 thi-1 hsdR17 supE44 relA1 lac[F′proAB lacIqZM15 Tn10 (TetR)]. Electroporation recovery of transformed cells was carried out in SOC medium (2% tryptone, 0.5% yeast extract, 10 mM NaCl, 2.5 mM KCl, 10 mM MgCl2, 10 mM MgSO4, and 20 mM glucose).
Transformed E. coli cultures were grown in 2xYT medium (10 g/L yeast extract, 16 g/L tryptone, 5 g/L NaCl). Antibiotics were added to select for maintenance of plasmids in strains transformed with these, according to their respective antibiotic resistance gene. Antibiotic concentrations when added were as follows: ampicillin 100 μg/mL, chloramphenicol 30 μg/mL, spectinomycin 50 μg/mL, kanamycin 50 μg/mL.
The expression of the yoeB gene in the yefM-yoeB TA pair construct (FIG. 2) was placed under the control of the Lac promoter, which is inducible by isopropyl β-D-1-thiogalactopyranoside (IPTG). Exposure of the cells to increasing concentrations of IPTG induced sufficient expression of the YoeB toxin to prevent growth, when the cells were grown in the absence of any source of L-arabinose (FIG. 3A). […]

[2] = tested on: E. coli XL1 with folP/glmM driven by pBAD promoter; assay: L-arabinose-addiction regulated essential gene operon folP/glmM, cell growth (OD600); settings: 37° C.
[3] = tested on: E. coli XL1 with pBAT-TA5; assay: TPP-responsive riboswitch-regulated TA system, cell growth (OD600); settings: presence of inducer TPP (500 μM added to the growth medium)
From the text: A TPP-responsive riboswitch (ThiMN15 #19) was engineered into the previously constructed L-arabinose-responsive TA-based correction system (pBAD-TA5 to yield pBAT-TA5). This TPP riboswitch functions as an “ON-type” when in the presence of its ligand TPP, and it is functional at the level of translation. The riboswitch was inserted into the DNA region of the pBAD-TA5 gene construct that encodes the 5′ untranslated region (UTR) of the antitoxin mRNA sequence (FIG. 17). For optimal functionality of the riboswitch, a protein-encoding sequence tet was also added as N-terminal fusion to YefM as it originated from the screen where ThiMN15#19 had been identified. An alternative TPP-responsive riboswitch was constructed, where an “OFF-type” riboswitch was inserted into the DNA region of the pBAD-TA5 gene construct that encodes the 5′-UTR of the toxin-encoding sequence to yield the same ligand-responsive growth.
An alternative TPP responsive-riboswitch-regulated TA correction system was engineered with a constitutive promoter driving expression of the riboswitch-yefM mRNA. From a selection of constitutive promoters (SEQ ID Nos.: 47-65, 89) of different strengths, the pBAD promoter of pBAT-TA5 was replaced and the resulting plasmids transformed into E. coli XL1. […]

[4] = tested on: E. coli control strain e3.22CON; assay: Toxicity of benzoic acid to non-addicted control strain, growth in microtiter plate; settings: 2xYT, 5 mM benzoic acid, 37 deg. C.
Experimental: A non-addicted control E. coli strain (e3.22CON), also equipped with spectinomycin and kanamycin resistance genes, but wild-type control of folP-glmM expression (Table 13), was constructed in order to test the toxicity of benzoic acid.
A selected addicted strain (e3.22#4) and the non-addicted control E. coli strain (e3.18CON) were then tested for benzoic acid dependent growth by cultivation in a microtiter plate reader in liquid 2xYT medium supplemented with spectinomycin and kanamycin and w/wo salicylic acid (0 or 5 mM). […] In contrast to the control strain, the growth rate and final biomass yield of the addicted strain e3.18#1 was enhanced by supplementation with benzoic acid with a growth rate higher than otherwise expected for non-addicted strains (FIG. 16).

[5] = tested on: E. coli strain e3.22#4; assay: Benzoic acid-dependent growth of addicted strain; settings: 5 mM benzoic acid
From the text: The native single genomic copy of the essential gene operon folP-glmM in the E. coli XL1 host strain was modified to allow its transcriptional control by the benzoic acid-responsive promoter pSAL [SEQ ID No:118]. First, a gene encoding a benzoic acid biosensor (Pseudomonas putida nahR) (Table 12) was introduced into the XL1 host strain on the plasmid pBABspec. Then, replacement of the native folP-glmM promoter by the pSAL promoter was engineered by means of lambda red-mediated recombineering.
Recombineering was performed as described in section 2.3 using well-described methods utilizing the pKD46 plasmid (Datsenko and Wanner, 2000)). Instead of gene disruption, a specific set of knock-out DNA fragments was used to only replace the native essential folP-glmM operon promoter and folP RBS. This set of knockout DNA fragments contained a kanamycin resistance cassette and the pSAL promoter, as illustrated in the cartoon in FIG. 8, as well as a redundant nucleotide (“N”, wherein “N” is any of A, T , G or C) in the RBS for folP-glmM to generate a four-membered library of folP translational strengths. […]
A selected addicted strain (e3.22#4) and the non-addicted control E. coli strain (e3.18CON) were then tested for benzoic acid dependent growth by cultivation in a microtiter plate reader in liquid 2xYT medium supplemented with spectinomycin and kanamycin and w/wo salicylic acid (0 or 5 mM). […]

[6] = tested on: E. coli with mevalonate biosensor TA plasmid (pBAM-TA5); settings: 37 mM mevalonate added; no IPTG
[7] = tested on: E. coli strain e3.18#1; assay: Salicylic acid-dependent growth of addicted strain; settings: 5 mM salicylic acid
From the text: The native single genomic copy of the essential gene operon folP-glmM in the E. coli XL1 host strain was modified to allow its transcriptional control by the salicylic acid-responsive promoter pSAL [SEQ ID No:118]. First, a gene encoding a salicylic acid biosensor (Pseudomonas putida nahR_Asn169 (Cebolla et al., 1997)) was introduced into the XL1 host strain on the plasmid pBANspec (Table 10). Then, replacement of the native folP-glmM promoter by the pSAL promoter was engineered by means of lambda red-mediated recombineering.
Recombineering was performed as described in section 2.3 using well-described methods utilizing the pKD46 plasmid (Datsenko and Wanner, 2000). Instead of gene disruption, a specific set of knock-out DNA fragments was used to only replace the native essential folP-glmM operon promoter and folP RBS. […]
(§1) A selected addicted strain (e3.18#1) and the non-addicted control E. coli strain (e3.18CON) were then tested for salicylic acid dependent growth by cultivation in a microtiter plate reader in liquid 2xYT medium supplemented with spectinomycin and kanamycin and presence/absence of salicylic acid (0 or 5 mM). […]

[8] = tested on: E. coli control strain e3.18CON; assay: Toxicity of salicylic acid to non-addicted control strain, growth in microtiter plate; settings: 2xYT, 5 mM salicylic acid, 37 deg. C.
Experimental: Recombineering was performed as described in section 2.3 using well-described methods utilizing the pKD46 plasmid (Datsenko and Wanner, 2000). Instead of gene disruption, a specific set of knock-out DNA fragments was used to only replace the native essential folP-glmM operon promoter and folP RBS. This set of knockout DNA fragments contained a kanamycin resistance cassette and the pSAL promoter, as illustrated in the cartoon in FIG. 8, as well as a redundant nucleotide (“N”, wherein “N” is any of A, T , G or C) in the RBS for folP-glmM to generate a four-membered library of folP translational strengths. This library allows selection of a translational strength for folP that suits the transcriptional regulation by the biosensor. Finally, candidate recombineered cells were selected for by plating on LB agar plates supplemented with 5 mM salicylic acid and spectinomycin for maintenance of pBANspec; and kanamycin for selection of inserted knockout fragment. […]
as §1

[9] = tested on: E. coli strain e3.16#5; assay: Triacetic acid lactone-dependent growth of addicted strain
From the text: The native single genomic copy of the essential gene operon folP-glmM in the E. coli XL1 host strain was modified to allow its transcriptional control by the triacetic acid lactone-responsive promoter pBAD. First, a gene encoding a triacetic acid lactone biosensor (AraCtal (Tang et al., 2013)) was introduced into the XL1 host strain on the plasmid pBALspec (Table 8). Then, replacement of the native folP-glmM promoter in this host strain by the pBAD promoter was engineered by means of lambda red-mediated recombineering. Recombineering was performed using well-described methods utilizing the pKD46 plasmid (Datsenko and Wanner, 2000), but instead of gene disruption, a specific set of knock-out DNA fragments (produced by PCR) was used to only replace the native essential folP-glmM operon promoter and folP ribosomal binding site (RBS). This set of knockout DNA fragments each contained a kanamycin resistance cassette and the pBAD promoter, as illustrated in the cartoon in FIG. 8. The nucleotide sequence of the set of gene knockout DNA fragments differed only with respect to the redundant nucleotide (“N”, wherein “N” is any of A, T, G or C) in the RBS sequence (ACTTGC) for folP-glmM, which generated a four-membered library of folP translational strengths.
For recombineering, as performed in standard pKD46 protocols, the target strain was first transformed with pKD46, and a single colony of this strain was then cultured in a 25 mL 2xYT culture at 30 degrees C. and 250 rpm horizontal shaking. When the culture reached OD600=0.1, the lambda Red system of pKD46 was induced by addition of 0.2 vol % L-arabinose, and then further cultured to grow to OD600=0.4. […]
The non-addicted control E. coli strain (e3.16CON), and a selected addicted strain (e3.16#5) were then tested and compared for triacetic acid lactone-dependent growth by cultivation in a microtiter plate reader in liquid 2xYT medium supplemented with spectinomycin and kanamycin and a three-step gradient of triacetic acid lactone (0, 2 and 20 mM). […]

[10] = tested on: E. coli control strain e3.16CON; assay: Toxicity of triacetic acid lactone to non-addicted control strain, growth in microtiter plate
Experimental: A non-addicted control E. coli strain (e3.16CON), also equipped with spectinomycin and kanamycin resistance genes, but with wildtype control of folP-glmM expression (Table 9), was constructed in order to test the toxicity of triacetic acid lactone.
The non-addicted control E. coli strain (e3.16CON), and a selected addicted strain (e3.16#5) were then tested and compared for triacetic acid lactone-dependent growth by cultivation in a microtiter plate reader in liquid 2xYT medium supplemented with spectinomycin and kanamycin and a three-step gradient of triacetic acid lactone (0, 2 and 20 mM). […] The observed growth depression was greatest at a concentration of 20 mM triacetic acid lactone.

In the case of CC(C)S[C@@H]1O[C@H](CO)[C@H](O)[C@H](O)[C@H]1O [IPTG, isopropyl β-D-1-thiogalactopyranoside], the “IPTG (toxin inducer) concentration at which cell growth was strongly inhibited” value ([1]; no L-arabinose, yoeB toxin under pLac) was no less than 0.1 mM.
With O=C[C@H](O)[C@@H](O)[C@@H](O)CO [L-arabinose] the cell growth ([2]; 2xYT supplemented with 0.0025% L-arabinose, 12-hour time course) was “completely failed to grow”, the cell growth ([2]; 2xYT supplemented with 0.25% L-arabinose) was “exponential” and the “L-arabinose concentration sufficient to restore wild-type growth” value ([1]; co-addition with IPTG at concentrations up to 0.5 mM) was 0.1%.
For Cc1ncc(C[n+]2csc(CCO[P@](=O)(O)OP(=O)(O)O)c2C)c(N)n1 [TPP, thiamine pyrophosphate], the effect on growth [3] was “enhanced growth”.
In the case of O=C(O)c1ccccc1 [benzoic acid], the “effect on growth of control strain” value [4] was “relative reduction in growth rate and final biomass yield” and the “growth rate and final biomass yield of addicted strain” value [5] was “enhanced”.
In the case of CC(O)(CCO)CC(=O)O (stereo not drawn) [mevalonate], the “effect on cell growth compared to cultures devoid of mevalonate” value [6] was “increase in cell growth”.
O=C(O)c1ccccc1O [salicylic acid] was tested, and the “growth rate of addicted strain” value [7] was “not reduced” and the “effect on growth of control strain” value [8] was “relative reduction in growth rate and final biomass yield”.
With Cc1cc(O)cc(=O)o1 [triacetic acid lactone] the “final cell yield of addicted strain” value ([9]; 2 mM triacetic acid lactone) was “increased”, the “growth rate of addicted strain” value ([9]; 2 mM triacetic acid lactone) was “enhanced” and the “final cell yield of addicted strain” value ([9]; 20 mM triacetic acid lactone) was “increased”. The “effect on growth of control strain” value ([10]; 2xYT, 0, 2 and 20 mM triacetic acid lactone, 37 deg. C.) was “relative reduction in growth rate” and the “concentration at which observed growth depression was greatest” value ([10]; gradient 0, 2 and 20 mM) was 20000 µM.
